{"source": "patent US8192962B2", "about": "“Processes for detecting toxic substances” (Daikin Industries, Ltd., priority 2001, dated 2012)", "test_system": "Genes belonging to other category", "test": "DNA chip mRNA expression in yeast, genes belonging to other category (Table 9)", "assay_type": "cell-based, Saccharomyces cerevisiae S288C", "procedure": "Yeast (Saccharomyces cerevisiae S288C (α SUC2mal mel gap2 CUP1)) were incubated at 25° C. on YPD medium (yeast extract 1%, polypepton 2%, glucose 2%). One of toxic chemical substances was added to the cells at logarithmic growth phase, and the cells were further incubated for two hours. Cells were cultured without any chemical substance in the same condition, and were used as control. Concentrations of the chemical substances were defined to inhibit the growth of the yeast but not lead to death.\nAfter completion of the incubation, the culture was centrifuged to collect the cells. To the cells, sodium acetate buffer (50 mM sodium acetate, 10 mM EDTA, 1% SDS) was added, and the mixture was shaken at 65° C. for five minutes, followed by returning to room temperature, and obtaining the supernatant, of which the procedures were repeated two times. To the supernatant, ½ amount of a solution of phenol/chloroform was added, and the mixture was centrifuged to give a supernatant, which was added with an equal amount of chloroform, and the mixture was centrifuged to give a supernatant. To the supernatant, an equal amount of isopropanol containing 0.3 M sodium acetate was added, and the mixture was allowed to stand at room temperature for 30 minutes, after which the mixture was centrifuged to give a sediment of the whole RNAs. Seventy % ethanol was added to the sediment, and the mixture was again centrifuged to give a sediment, which was then dried and dissolved in water. mRNA was isolated from the whole RNAs as followings. In view of the fact that a poly A chain is attached to the 3′ terminus of mRNA, a polynucleotide having a poly T structure which was immobilized on the surface of latex beads was used to trap the mRNA, and then the mRNA was washed and eluted with spine column (Oligotex-dT30<Super>mRNA Purification Kit, Takara). Reverse transcription of the mRNA was conducted with a reverse transcriptase (Super Script II Reverse Transcriptase; catalogue No. 18064-014, GibcoBRL) using fluorescence-labeled nucleotides to give cDNAs that were introduced with Cy3-dUTP or Cy5-dUTP during the reverse transcription.\nThe labeled cDNAs were dissolved in TE buffer (10mM Tris-HCl/1 mM EDTA, pH8.0), and the solution was dropped on the DNA chip containing the whole genes of yeast (DNA Chip Research Inc. Japan) so that the cDNAs were hybridized on the DNA chip at 65° C. for over 12 hours. The fluoresces intensity of the DNA chip was read with a scanner, and the ratio relative to the fluorescence intensity resulting from the absence of chemical substance was estimated as the following, which is shown in Tables 1 to 9: […]", "data": [{"smiles": "C[S+](C)[O-]", "note": "[(15), dimethylsulfoxide]", "values": [{"measurement": "The level of expressed mRNA in the presence of chemical substance/The level of expressed mRNA in the absence of chemical substance", "setting": "yeast gene YAR010C", "value": 1.8}, {"measurement": "The level of expressed mRNA in the presence of chemical substance/The level of expressed mRNA in the absence of chemical substance", "setting": "yeast gene YBL005W-A", "value": 0.9}, {"measurement": "The level of expressed mRNA in the presence of chemical substance/The level of expressed mRNA in the absence of chemical substance", "setting": "yeast gene YBL041W", "value": 1.3}, {"measurement": "The level of expressed mRNA in the presence of chemical substance/The level of expressed mRNA in the absence of chemical substance", "setting": "yeast gene YBL043W", "value": 1.8}, {"measurement": "The level of expressed mRNA in the presence of chemical substance/The level of expressed mRNA in the absence of chemical substance", "setting": "yeast gene YBR109C", "value": 1.4}, {"measurement": "The level of expressed mRNA in the presence of chemical substance/The level of expressed mRNA in the absence of chemical substance", "setting": "yeast gene YBR201W", "value": 1.6}, {"measurement": "The level of expressed mRNA in the presence of chemical substance/The level of expressed mRNA in the absence of chemical substance", "setting": "yeast gene YBR214W", "value": 5.1}, {"measurement": "The level of expressed mRNA in the presence of chemical substance/The level of expressed mRNA in the absence of chemical substance", "setting": "yeast gene YCL027W", "value": 3.6}, {"measurement": "The level of expressed mRNA in the presence of chemical substance/The level of expressed mRNA in the absence of chemical substance", "setting": "yeast gene YCR004C", "value": 0.8}, {"measurement": "The level of expressed mRNA in the presence of chemical substance/The level of expressed mRNA in the absence of chemical substance", "setting": "yeast gene YCR088W", "value": 2.8}, {"measurement": "The level of expressed mRNA in the presence of chemical substance/The level of expressed mRNA in the absence of chemical substance", "setting": "yeast gene YDL007W", "value": 1.4}, {"measurement": "The level of expressed mRNA in the presence of chemical substance/The level of expressed mRNA in the absence of chemical substance", "setting": "yeast gene YDL008W", "value": 0.7}, {"measurement": "The level of expressed mRNA in the presence of chemical substance/The level of expressed mRNA in the absence of chemical substance", "setting": "yeast gene YDL126C", "value": 1.7}, {"measurement": "The level of expressed mRNA in the presence of chemical substance/The level of expressed mRNA in the absence of chemical substance", "setting": "yeast gene YDL238C", "value": 1.3}, {"measurement": "The level of expressed mRNA in the presence of chemical substance/The level of expressed mRNA in the absence of chemical substance", "setting": "yeast gene YDR055W", "value": 5.7}, {"measurement": "The level of expressed mRNA in the presence of chemical substance/The level of expressed mRNA in the absence of chemical substance", "setting": "yeast gene YDR085C", "value": 3.1}, {"measurement": "The level of expressed mRNA in the presence of chemical substance/The level of expressed mRNA in the absence of chemical substance", "setting": "yeast gene YDR104C", "value": 1.4}, {"measurement": "The level of expressed mRNA in the presence of chemical substance/The level of expressed mRNA in the absence of chemical substance", "setting": "yeast gene YDR115W", "value": 0.8}, {"measurement": "The level of expressed mRNA in the presence of chemical substance/The level of expressed mRNA in the absence of chemical substance", "setting": "yeast gene YDR259C", "value": 2.9}, {"measurement": "The level of expressed mRNA in the presence of chemical substance/The level of expressed mRNA in the absence of chemical substance", "setting": "yeast gene YDR315C", "value": 1.5}, {"measurement": "The level of expressed mRNA in the presence of chemical substance/The level of expressed mRNA in the absence of chemical substance", "setting": "yeast gene YDR358W", "value": 0.9}, {"measurement": "The level of expressed mRNA in the presence of chemical substance/The level of expressed mRNA in the absence of chemical substance", "setting": "yeast gene YDR388W", "value": 2.6}, {"measurement": "The level of expressed mRNA in the presence of chemical substance/The level of expressed mRNA in the absence of chemical substance", "setting": "yeast gene YDR432W", "value": 2.6}, {"measurement": "The level of expressed mRNA in the presence of chemical substance/The level of expressed mRNA in the absence of chemical substance", "setting": "yeast gene YDR481C", "value": 3.5}, {"measurement": "The level of expressed mRNA in the presence of chemical substance/The level of expressed mRNA in the absence of chemical substance", "setting": "yeast gene YDR510W", "value": 2.2}, {"measurement": "The level of expressed mRNA in the presence of chemical substance/The level of expressed mRNA in the absence of chemical substance", "setting": "yeast gene YEL066W", "value": 1.0}, {"measurement": "The level of expressed mRNA in the presence of chemical substance/The level of expressed mRNA in the absence of chemical substance", "setting": "yeast gene YER107C", "value": 0.7}, {"measurement": "The level of expressed mRNA in the presence of chemical substance/The level of expressed mRNA in the absence of chemical substance", "setting": "yeast gene YER159C", "value": 2.2}, {"measurement": "The level of expressed mRNA in the presence of chemical substance/The level of expressed mRNA in the absence of chemical substance", "setting": "yeast gene YFL028C", "value": 0.8}, {"measurement": "The level of expressed mRNA in the presence of chemical substance/The level of expressed mRNA in the absence of chemical substance", "setting": "yeast gene YGL158W", "value": 2.3}, {"measurement": "The level of expressed mRNA in the presence of chemical substance/The level of expressed mRNA in the absence of chemical substance", "setting": "yeast gene YGL229C", "value": 0.2}, {"measurement": "The level of expressed mRNA in the presence of chemical substance/The level of expressed mRNA in the absence of chemical substance", "setting": "yeast gene YGR136W", "value": 2.6}, {"measurement": "The level of expressed mRNA in the presence of chemical substance/The level of expressed mRNA in the absence of chemical substance", "setting": "yeast gene YGR213C", "value": 6.5}, {"measurement": "The level of expressed mRNA in the presence of chemical substance/The level of expressed mRNA in the absence of chemical substance", "setting": "yeast gene YGR257C", "value": 1.3}, {"measurement": "The level of expressed mRNA in the presence of chemical substance/The level of expressed mRNA in the absence of chemical substance", "setting": "yeast gene YHR071W", "value": 3.0}, {"measurement": "The level of expressed mRNA in the presence of chemical substance/The level of expressed mRNA in the absence of chemical substance", "setting": "yeast gene YHR139C", "value": 1.9}, {"measurement": "The level of expressed mRNA in the presence of chemical substance/The level of expressed mRNA in the absence of chemical substance", "setting": "yeast gene YIL140W", "value": 3.3}, {"measurement": "The level of expressed mRNA in the presence of chemical substance/The level of expressed mRNA in the absence of chemical substance", "setting": "yeast gene YJL030W", "value": 1.5}, {"measurement": "The level of expressed mRNA in the presence of chemical substance/The level of expressed mRNA in the absence of chemical substance", "setting": "yeast gene YJL073W", "value": 2.6}, {"measurement": "The level of expressed mRNA in the presence of chemical substance/The level of expressed mRNA in the absence of chemical substance", "setting": "yeast gene YJL116C", "value": 1.0}, {"measurement": "The level of expressed mRNA in the presence of chemical substance/The level of expressed mRNA in the absence of chemical substance", "setting": "yeast gene YJR004C", "value": 3.2}, {"measurement": "The level of expressed mRNA in the presence of chemical substance/The level of expressed mRNA in the absence of chemical substance", "setting": "yeast gene YJR029W", "value": 1.8}, {"measurement": "The level of expressed mRNA in the presence of chemical substance/The level of expressed mRNA in the absence of chemical substance", "setting": "yeast gene YJR086W", "value": 2.0}, {"measurement": "The level of expressed mRNA in the presence of chemical substance/The level of expressed mRNA in the absence of chemical substance", "setting": "yeast gene YJR099W", "value": 0.5}, {"measurement": "The level of expressed mRNA in the presence of chemical substance/The level of expressed mRNA in the absence of chemical substance", "setting": "yeast gene YJR122W", "value": 0.8}, {"measurement": "The level of expressed mRNA in the presence of chemical substance/The level of expressed mRNA in the absence of chemical substance", "setting": "yeast gene YKL008C", "value": 1.3}, {"measurement": "The level of expressed mRNA in the presence of chemical substance/The level of expressed mRNA in the absence of chemical substance", "setting": "yeast gene YKL039W", "value": 3.1}, {"measurement": "The level of expressed mRNA in the presence of chemical substance/The level of expressed mRNA in the absence of chemical substance", "setting": "yeast gene YKL041W", "value": 1.0}, {"measurement": "The level of expressed mRNA in the presence of chemical substance/The level of expressed mRNA in the absence of chemical substance", "setting": "yeast gene YKL096W", "value": 2.3}, {"measurement": "The level of expressed mRNA in the presence of chemical substance/The level of expressed mRNA in the absence of chemical substance", "setting": "yeast gene YKL139W", "value": 1.0}]}]}
